Data from paper PMC7155171, “Probing the Open Global Health Chemical Diversity Library for Multistage-Active Starting Points for Next-Generation Antimalarials” (ACS Infectious Diseases, 2020).
Read-outs that look alike come from different tables or passages of the source.

Assays:
[1] = tested on: HepG2-A16-CD81 hepatocytes; assay: cells; set-up: Uninfected hepatocyte viability, CellTiter-Glo luminescence; conditions: sheet CDD Export 1;, cytotoxicity primary screen, read-out: Table S5. Liver stage reconfirmation data / HepG2 Cytotoxicity primary screen (2uM): % Inhibition
Procedure: For the screen, 5 μL of HepG2-A16-CD81 hepatocytes containing 3 × 10^3 cells was seeded into 1536-well plates, which had been prespotted with 10 nL of library compound (2 μM final assay concentration (Figure 1)) and incubated overnight. For PbLuc infected plates, approximately 750 purified sporozoites in 5 μL of screening media were added to each well and incubated for 48 h before measuring luciferase activity. Compounds were tested for toxicity in parallel (see Methods) by measuring uninfected hepatocyte viability using CellTiter-Glo. […] This hit rate was slightly lower than expected for an agnostic library, which prompted us to rescreen the entire library at 10 μM. The PbLuc and cytotoxicity assay plates for this second replicate would be stamped in-house with 50 nL of library compound per well, using the same compound plates as the sexual stage screen described below. All the assay parameters were kept similar, except the change in concentration and shortening the time the compounds spent in each well prior to infection. […] All potential false positive effectors from the CellTiter-Glo assay were filtered from subsequent studies (Table S1). Naturally, there were more primary hits from the 10 μM than the 2 μM screen due to the higher testing concentration. For reconfirmation, we sourced all the hits that inhibited PbLuc at >70% and mean HepG2 at <50% in the 2 μM screen or PbLuc at >60% in both 2 and 10 μM screens and mean HepG2 at <50%. The resulting compounds were acquired as DMSO stocks and retested in the dose response (50–2.82 × 10^–4 μM or 25–141.13 × 10^–6 μM) against PbLuc and uninfected hepatocytes (Table S5). […] The majority of these compounds were weak inhibitors, although 18 submicromolar hits were found (Table S5).

[2] = tested on: P. falciparum (NF54) stage V gametocytes; assay: Stage V gametocyte viability assay (MitoTracker Red CMXRos high content imaging); type: cell-based, Plasmodium falciparum; conditions: Plasmodium falciparum; for inhibition at 2 µM: read-out: Stg V Gam primary screen: Inhibition % (2uM) (n=2)
[3] = tested on: P. falciparum Dd2 (PfLuc) line expressing firefly luciferase, asexual blood stage; assay: microbe, parasite or virus in culture; type: cell-based, Plasmodium falciparum; conditions: Plasmodium falciparum
P. falciparum Dd2 = assay: SYBR green I asexual blood stage proliferation assay (96 h); type: cell-based, Plasmodium falciparum; conditions: Plasmodium falciparum, DD2, 11-pt dose response, 96hr
[4] = NF54, 72 h, read-out: GAM V IC50, stage V gametocytes, 72 h
[5] = NF54, 72 h, read-out: Stg V Gam dose response IC50 (µM) (n=3), 10-point dose response, n=3, 72 h
[6] = DD2, read-out: P. falciparum Luciferase ABS 11-pt Reconfirmation Dose Response (48hr): IC50, 11-pt dose response, 48hr
[7] = DD2, 8-pt dose response, 96hr, read-out: P. falciparum Luciferase ABS 8-pt Reconfirmation Dose Response (96hr): IC50
[8] = DD2, 8-pt dose response, 96hr, read-out: P. falciparum Luciferase ABS 8-pt Reconfirmation Dose Response (96hr): Maximum inhibition (%)
[9] = DD2, 11-pt dose response, 96hr, read-out: P. falciparum Luciferase ABS 11-pt Reconfirmation Dose Response (96hr): IC50
[10] = DD2, 11-pt dose response, 96hr, read-out: P. falciparum Luciferase ABS 11-pt Reconfirmation Dose Response (96hr): Maximum inhibition (%)
[11] = read-out: P. falciparum Sybr Green I ABS 11-pt Reconfirmation Dose Response (96hr): IC50
[12] = read-out: P. falciparum Sybr Green I ABS 11-pt Reconfirmation Dose Response (96hr): Maximum inhibition (%)
[13] = DD2, read-out: CDD P. falciparum Luciferase ABS 11-pt Reconfirmation Dose Response (48hr): IC50 (μM), 11-pt dose response, 48hr
[14] = DD2, 8-pt dose response, 96hr, read-out: CDD P. falciparum Luciferase ABS 8-pt Reconfirmation Dose Response (96hr): IC50
[15] = DD2, 8-pt dose response, 96hr, read-out: CDD P. falciparum Luciferase ABS 8-pt Reconfirmation Dose Response (96hr): Maximum inhibition (%)
[16] = DD2, 11-pt dose response, 96hr, read-out: CDD P. falciparum Luciferase ABS 11-pt Reconfirmation Dose Response (96hr): IC50
[17] = DD2, 11-pt dose response, 96hr, read-out: CDD P. falciparum Luciferase ABS 11-pt Reconfirmation Dose Response (96hr): Maximum inhibition (%)
[18] = Sybr Green I, read-out: CDD P. falciparum Sybr Green I ABS 11-pt Reconfirmation Dose Response (96hr): IC50
[19] = Sybr Green I, read-out: CDD P. falciparum Sybr Green I ABS 11-pt Reconfirmation Dose Response (96hr): Maximum inhibition (%)
[20] = DD2, 11-pt dose response, 48hr, read-out: CDD P. falciparum Luciferase ABS 11-pt Reconfirmation Dose Response (48hr): Maximum inhibition (%)

`O=S(=O)(c1ccc(Cl)s1)N1CCN(Cc2nc(-c3ccco3)cs2)CC1` [DDD01027755] was tested, and the inhibition at 2 µM [1] was 12.1%.

For `CC(C)(C)NC(=O)N1CCC(Oc2ccc(C(F)(F)F)cn2)CC1` [DDD01028321], the inhibition at 2 µM [1] was -4.73%.

`COc1cccc(CN2CCc3nc(C(=O)NCC(C)C)sc3CC2)c1` [DDD01030710] was tested, and the inhibition at 2 µM [1] was -10.2%.

Molecule `CC(=O)Nc1ncc(S(=O)(=O)Nc2ccc3c(c2)OCCO3)s1` [DDD01037671] has an inhibition at 2 µM [1] of -2.36%.

With `Cn1cncc1CN1CCCC1c1cncc(Oc2ccc(Cl)cc2)n1` (stereo not shown) [DDD01059295] the inhibition at 2 µM [1] was 0.825%.

In the case of `Cc1ncc(CN2CCOC(c3ccc(-c4ccccc4F)cn3)C2)s1` (stereo not shown) [DDD01059493], the inhibition at 2 µM [1] is reported as -6.23%.

For `Cc1cc(-c2cnc(NCc3cccnc3)nc2C(C)(C)C)on1` [DDD01061148], the inhibition at 2 µM [1] was -8.43%.

`COC1CCN(c2ccc(NC(=O)C3CC3)cc2C(F)(F)F)CC1` [DDD01061774] showed an inhibition at 2 µM [1] of 12.4%.

In the case of `N#Cc1c(Cl)nsc1NCc1cccnc1OCC(F)(F)F` [DDD01067853], the inhibition at 2 µM [1] is reported as 4.29%.

`COC(=O)c1sc(NCc2ccc(N3CCC(O)CC3)c(F)c2)nc1Cl` [DDD01073922] showed an inhibition at 2 µM [1] of 5.85%.

Molecule `Cc1nc(C(=O)NC2CCN(CCOc3ccc(Br)cc3)CC2)cs1` [DDD01079205] has an inhibition at 2 µM [1] of 17.6%.

`N#Cc1c(Cl)nsc1NCC1(c2ccccc2)CCC1` [DDD01079347] showed an inhibition at 2 µM [1] of 12%.

For `CCc1ccc(-c2ncc3c(n2)N(C)CCN(CCN(C)C)C3=O)cc1` [DDD01235938], the inhibition at 2 µM [1] was 4.38%.

In the case of `Cc1ccc(Sc2ccc(CN3CCC4(CCCNC4=O)C3)o2)cc1` (stereo not shown) [DDD01244322], the inhibition at 2 µM [1] is reported as -4.2%.

In the case of `Clc1ccccc1-c1cc(CNc2ncnc3c2CCNCC3)no1` [DDD01247009], the inhibition at 2 µM [1] is reported as -1.07%.

Work on `Fc1ccc(N2CCCN(c3ccc(Cn4ccnc4)cn3)CC2)cc1` [DDD01247581] yielded an inhibition at 2 µM [1] of 3.83%.

`CCc1[nH]c2c(CNc3cc(C)nc(NC)n3)cc(C)cc2c1C` [DDD01250162, CCC1=C(C)C2=CC(C)=CC(CNC3=CC(C)=NC(NC)=N3)=C2N1] showed an IC50 [2, 4] of 4.9 µM, an IC50 [2, 5] of 4.9 µM and an inhibition at 2 µM ([2]; NF54, 72 h) of 64.1%. The IC50 [3, 6] was > 12.5 µM, the IC50 [3, 7] was 1.31 µM and the Emax [3, 8] was 92.3%. For the same molecule, the Emax ([3]; DD2, 11-pt dose response, 48hr, read-out: P. falciparum Luciferase ABS 11-pt Reconfirmation Dose Response (48hr): Maximum inhibition (%)) was 38.8%, the IC50 [3, 9] was > 12.5 µM and the Emax [3, 10] was 45.4%. The IC50 (P. falciparum Dd2; [11]) was 1.55 µM and the Emax (P. falciparum Dd2; [12]) was 94.1%.

Molecule `CCc1[nH]c2c(CNc3nc(C)cc(NC)n3)cc(C)cc2c1C` [DDD01251782, CCC1=C(C)C2=CC(C)=CC(CNC3=NC(C)=CC(NC)=N3)=C2N1] has an IC50 ([2]; NF54, read-out: Stg V Gam dose response IC50 (µM) (n=3), 10-point dose response, n=3, 72 h) of 3.76 µM, an inhibition at 2 µM ([2]; NF54, Table S6, 2uM, n=2, 72 h) of 53.8% and an IC50 ([2]; NF54, stage V gametocytes, 72 h, read-out: GAM V IC50) of 3.76 µM. The IC50 [3, 13] was 0.765 µM, the IC50 [3, 14] was 0.63 µM and the Emax [3, 15] was 95.7%. It also gave an IC50 [3, 16] of 0.158 µM, an Emax [3, 17] of 98.4% and an IC50 (P. falciparum Dd2; [18]) of 0.696 µM. The Emax (P. falciparum Dd2; [19]) was 98%.

In the case of `COc1ccc(-c2cc(CNc3ncnc4c3CCNCC4)no2)cc1` [DDD01252258], the inhibition at 2 µM [1] is reported as 4.02%.

`NCC1CCN(C2CCN(c3ccc(-c4ccco4)cc3)CC2)C1` (stereo not shown) [DDD01252361, NCC1CCN(C1)C1CCN(CC1)C1=CC=C(C=C1)C1=CC=CO1] gave an IC50 [2, 5] of 1.9 µM, an inhibition at 2 µM ([2]; NF54, 72 h) of 80.5% and an IC50 [3, 13] of 3 µM. The IC50 [3, 14] was 0.4 µM, the Emax [3, 15] was 95.9% and the Emax [3, 20] was 98.8%. For the same molecule, the IC50 [3, 16] was 1.8 µM, the Emax [3, 17] was 100% and the IC50 (P. falciparum Dd2; [18]) was 0.605 µM. For the same molecule, the Emax (P. falciparum Dd2; [19]) was 95.1%.

In the case of `CC(Nc1ncnc2c1CCNC2)c1ccc2c(c1)CCCC2` (stereo not shown) [DDD01252547], the inhibition at 2 µM [1] is reported as 0.573%.

Work on `CCc1ccc(C2c3nc[nH]c3CCN2Cc2nccn2CC)nc1` (stereo not shown) [DDD01254473, CCN1C=CN=C1CN1CCC2=C(NC=N2)C1C1=CC=C(CC)C=N1] yielded an IC50 [2, 5] of 0.056 µM, an inhibition at 2 µM ([2]; NF54, 72 h) of 80.6% and an IC50 [3, 6] of 1.54 µM. For the same molecule, the IC50 [3, 7] was 1.2 µM, the Emax [3, 8] was 91.2% and the IC50 [3, 9] was 0.448 µM. For the same molecule, the Emax [3, 10] was 98.8%, the IC50 (P. falciparum Dd2; [11]) was 2.64 µM and the Emax (P. falciparum Dd2; [12]) was 78.6%.

For `CN(Cc1nccs1)c1nc(-c2ccccn2)nc2c1CCNCC2` [DDD01258014, CN(CC1=NC=CS1)C1=NC(=NC2=C1CCNCC2)C1=CC=CC=N1], the IC50 [2, 4] was 1.18 µM, the IC50 [2, 5] was 1.18 µM and the inhibition at 2 µM ([2]; NF54, 72 h) was 75.5%. The IC50 [3, 13] was 2.11 µM, the IC50 [3, 14] was 1.09 µM and the Emax [3, 15] was 89.8%. It also gave an Emax [3, 20] of 76.9%, an IC50 [3, 16] of 0.455 µM and an Emax [3, 17] of 98%. The IC50 ([3]; 96 h incubation, Dd2 luciferase, read-out: 96 hour Pfluc IC50) was 0.46 µM, the IC50 (P. falciparum Dd2; [18]) was 8.5 µM and the Emax (P. falciparum Dd2; [19]) was 68.8%.
